As usually defined, the melting point is the temperature of the solid-liquid transition.

`CCCc1nn(C)c2c(NCc3ccc(OC)c(Cl)c3)nc(CCC(=O)O)nc12` [Example 2, 3-[7-(3-chloro-4-methoxybenzylamino)-1-methyl-3-propyl-1H-pyrazolo-[4,3-d]pyrimidin-5-yl]propionic acid] registered a melting point of 178 °C.

For the origin of these results see patent US20040063730A1, “Pharmacuetical formulation comprising puyrazolo[4,-3-d]pyrimidines and antithrombotics, calcium antagonists, or prostaglandins or prostaglandin derivatives” (priority 2000, published 2004).
